Earlier results in publication PMC12304798 (British Journal of Clinical Pharmacology, 2025).
Read-outs that look alike come from different tables or passages of the source.

Tests used:
[1] = system: NE activity; details: once-daily doses, healthy volunteers
[2] = system: NE activity
[3] = healthy Japanese and Caucasian volunteers

skin exfoliation, share of volunteers [3] [%] | SMILES | reduction in NE activity [1] | inhibitory effect on NE activity ([2]; brensocatib 10 mg) [%] | inhibitory effect on NE activity ([2]; brensocatib 25 mg) [%]
– | CC[C@@H](/C=C/C(=O)N1CCc2ccccc21)NC(=O)C1(N)CCOCC1 [GSK2793660] | approximately 20% | – | –
10 | Cn1c(=O)oc2ccc(-c3ccc(C[C@@H](C#N)NC(=O)[C@@H]4CNCCCO4)cc3)cc21 [brensocatib] | – | 30 | 49
